Assay results as given in publication PMC5913645, “Methyl phenlactonoates are efficient strigolactone analogs with simple structure” (Journal of Experimental Botany, 2017).
pEC50: −log10 of the molar value. “Also recorded” adds a separate entry of the source.

Tests used:
parasite seed = settings: ref Fukui et al., 2013; cited from earlier work
[1] = Chemical stability in aqueous solution (UHPLC); assay type: physicochemical; settings: aqueous solution pH 6.8, 21 °C, 50 μg ml^−1, monitored at 24 h intervals up to 3 weeks
Description: Aqueous solutions of MPs (50 μg ml^−1; pH 6.8) were incubated at 21 °C in amber HPLC vials (adapted from [de Saint Germain et al., 2016]). For sample preparation, 50 μl of an acetone solution (1 mg ml^−1) was diluted to the final concentration with methanol (425 μl), water (500 μl) and 25 μl of 1-indanol (1.0 mg ml^−1 solution in acetone) as internal standard. […] Compounds eluted from the column were detected with a diode array detector. The relative quantity of remaining (non-degraded) product was determined by comparison with the internal standard. Stability was monitored at 24 h intervals up to 3 weeks.

S. hermonthica seeds [2] = test: Striga hermonthica seed germination bioassay; assay type: in vivo; settings: for pEC50: Striga hermonthica, concentrations 10^–5 to 10^–12 M; for germination activity, order among the chlorophenyl compounds: species not given
Description: Parasitic weed seeds’ (S. hermonthica and P. ramosa) germination activity was studied as described previously ([Jamil et al., 2012]). Six pre-conditioned seed discs were placed in a 90 mm Petri dish containing a filter paper ring wetted with 0.9 ml sterile MilliQ water. Then 50 μl of SL analog solution (10^–5–10^–12 M) was applied on each of the six discs, for each concentration. GR24 solutions with equal concentrations and sterile MilliQ water were included as a positive and negative control, respectively. After application, seeds of S. hermonthica and P. ramosa were incubated in dark at 30 °C for 2 d and at 25 °C for 4 d, respectively. Germination (seeds with radicle emerging through the seed coat) was scored under a binocular microscope, and germination rate (%) was calculated. Statistical analyses were carried out using the statistical software package R (version 3.2.2). Dose–response curves and half-maximum effective concentrations (EC50) were calculated to determine optimum amount of MPs. The synthetic strigolactone analog GR24 was used as reference to estimate efficacy of selected compounds. EC50 and estimated response were calculated using the drc package (https://cran.r-project.org/web/packages/drc/) with a four parameter logistic curve (dose–response curve) ([Ritz and Streibig, 2005]).

P. ramosa seeds [3] = test: P. ramosa seed germination bioassay; assay type: in vivo, Phelipanche ramosa; settings: 1.0 μM
Description: Parasitic weed seeds’ (S. hermonthica and P. ramosa) germination activity was studied as described previously ([Jamil et al., 2012]). Six pre-conditioned seed discs were placed in a 90 mm Petri dish containing a filter paper ring wetted with 0.9 ml sterile MilliQ water. Then 50 μl of SL analog solution (10^–5–10^–12 M) was applied on each of the six discs, for each concentration. GR24 solutions with equal concentrations and sterile MilliQ water were included as a positive and negative control, respectively. After application, seeds of S. hermonthica and P. ramosa were incubated in dark at 30 °C for 2 d and at 25 °C for 4 d, respectively. Germination (seeds with radicle emerging through the seed coat) was scored under a binocular microscope, and germination rate (%) was calculated.

rice d10 mutant = test: Rice micro tillering bioassay, d10 mutant; assay type: in vivo; settings: 2.5 μM
Description: Rice seeds (WT, d3, d10) were surface-sterilized by washing with 70% ethanol for 1 min and then with 2.5% sodium hypochlorite for 15 min. Seeds were then rinsed thoroughly with sterile MilliQ water and incubated in water for 2 d at 30 °C in the dark. Pre-germinated seeds were transferred to filter papers containing half-strength MS medium in 90 mm Petri dishes and incubated at 30 °C under fluorescent white light (130–180 μmol m^−2 s^−1) for 1 week. Seven-day-old seedlings were transferred to 50 ml falcon tubes (one seedling per tube) containing modified half-strength Hoagland nutrient solution and grown in greenhouse. Plants were treated with MPs at 2.5 μM to 2.5 × 10^–7 μM, using GR24 as positive control. The compounds were applied six times, twice a week. Number of tillers per plant, plant height and fresh biomass were measured at final harvest.
Statistical analyses were carried out using the statistical software package R (version 3.2.2). Dose–response curves and half-maximum effective concentrations (EC50) were calculated to determine optimum amount of MPs. The synthetic strigolactone analog GR24 was used as reference to estimate efficacy of selected compounds. EC50 and estimated response were calculated using the drc package (https://cran.r-project.org/web/packages/drc/) with a four parameter logistic curve (dose–response curve) ([Ritz and Streibig, 2005]).

Arabidopsis seedlings [4] = test: Arabidopsis lateral root density; assay type: in vivo; settings: 1.0 μM, 8-day-old seedlings
Description: Sterilized Arabidopsis seeds were sown on half-strength MS (with 0.5% sucrose+1% agar, 0.5 g l^−1 MES, pH 5.7) plates supplemented with GR24 or MPs (at 1.0 μM). Plates were stored at 4 °C in darkness for 3 d and then vertically grown at 22 °C in a Percival incubator under long day condition (16 h at 22 °C/8 h at 16 °C day/night, 60% relative humidity, 60–70 μmol m^−2 s^−1 white light) for 8 d. For determining the effect on lateral root density and primary root length, at least 30 seedlings were measured using ImageJ software after scanning roots.

Arabidopsis seedlings [5] = test: Arabidopsis hypocotyl elongation assay; assay type: in vivo; settings: 1.0 μM, continuous red light
Description: Sterilized Arabidopsis seeds were sown on half-strength MS (with 0.5% sucrose+1% agar, 0.5 g l^−1 MES, pH 5.7) plates supplemented with MPs or GR24 (at 1.0 μM). Plates were stored at 4 °C in darkness for 3 d. To initiate germination, plates were exposed to continuous white light for 24 h, then transferred to continuous monochromatic red light (20 μmol m^−2 s^−1, 22 °C) conditions for another 4 d. For hypocotyl length measurement, at least 30 seedlings were measured using the freely available ImageJ software (http://rsbweb.nih.gov/ij/) after taking digital photographs. A monochromatic red light source was applied as described previously ([Wu and Yang, 2010]). Light flow rates were measured using a Li250 quantum photometer (Li-Cor, Lincoln, NE, USA).

S. hermonthica seeds [6] = settings: cited from earlier work
P. ramosa seeds [7] = test system: P. ramosa seeds; parameters: method as in Wigchert et al., 1999; settings: ref Wigchert et al., 1999; cited from earlier work
Arabidopsis seedlings [8] = test system: Arabidopsis seedlings; parameters: method as in Jia et al. (2016); settings: ref Jia et al., 2016; cited from earlier work

CC1=CC(Oc2ccc(Br)cc2)OC1=O (centres unmarked) [4-Br-debranone]
activity in inducing parasite seed germination (parasite seed): moderate activity

COC(=O)/C(=C/OC1C=C(C)C(=O)O1)c1ccccc1[N+](=O)[O-] (centres unmarked) [MP2]
stability in comparison with GR24 [1]: more stable than GR24 | pEC50 (S. hermonthica seeds [2]): 7.49 | P. ramosa germination activity (P. ramosa seeds [3]): much higher activity | growth, senescence symptoms and biomass of rice seedlings (rice d10 mutant): stunted the growth and caused senescence symptoms

COC(=O)/C(=C/OC1C=C(C)C(=O)O1)c1ccc(C)cc1 (centres unmarked) [MP4]
stability in comparison with GR24 [1]: more stable than GR24

CC1=CC(O/C=C2/C(=O)OCc3ccccc32)OC1=O (centres unmarked) [MP5]
stability in comparison with GR24 [1]: more stable than GR24; also recorded: most stable compound

COC(=O)/C(=C/OC1C=C(C)C(=O)O1)c1cccc(F)c1 (centres unmarked) [MP6]
growth, senescence symptoms and biomass of rice seedlings (rice d10 mutant): stunted the growth and caused senescence symptoms

COC(=O)/C(=C/OC1C=C(C)C(=O)O1)c1cccc(Cl)c1 (centres unmarked) [MP8]
stability in comparison with GR24 [1]: very similar to that of GR24 | germination activity, order among the chlorophenyl compounds (S. hermonthica seeds [2]): highest germination activity with MP7 (Cl in para position) followed by MP9 (ortho position) and MP8 (meta position) | P. ramosa germination activity (P. ramosa seeds [3]): much higher activity | reduction of lateral root number/density (Arabidopsis seedlings [4]): slightly more active than GR24

COC(=O)/C(=C/OC1C=C(C)C(=O)O1)c1ccccc1Cl (centres unmarked) [MP9]
stability in comparison with GR24 [1]: very similar to that of GR24 | germination activity, order among the chlorophenyl compounds (S. hermonthica seeds [2]): highest germination activity with MP7 (Cl in para position) followed by MP9 (ortho position) and MP8 (meta position) | growth, senescence symptoms and biomass of rice seedlings (rice d10 mutant): stunted the growth and caused senescence symptoms

COC(=O)/C(=C\OC1C=C(C)C(=O)O1)c1ccccc1Cl (centres unmarked) [MP10]
stability in comparison with GR24 [1]: more stable than GR24 | growth, senescence symptoms and biomass of rice seedlings (rice d10 mutant): stunted the growth and caused senescence symptoms

COC(=O)C(=COC1C=C(C)C(=O)O1)c1cccc2ccccc12 (centres unmarked) [MP11]
stability in comparison with GR24 [1]: very similar to that of GR24 | S. hermonthica germination rate (S. hermonthica seeds [2]; 1.0 μM): 32% | pEC50 (S. hermonthica seeds [2]): 5.77

CC1=CC(O/C=C(/C=O)c2ccc([N+](=O)[O-])cc2)OC1=O (centres unmarked) [MP12, (E)-3-(4-methyl-5-oxo-2,5-dihydrofuran-2-yloxy)-2-(4-nitrophenyl)acrylaldehyde]
stability in comparison with GR24 [1]: quite unstable and not detectable even after only 24 h | inhibition of hypocotyl growth (Arabidopsis seedlings [5]): Apart from MP12 and MP15, all MPs showed significant inhibition

COC(=O)/C(=C/OC1C=C(C)C(=O)O1)c1ccc(OC)cc1 (centres unmarked) [MP14]
stability in comparison with GR24 [1]: very similar to that of GR24

COC(=O)/C(=C/OC1C=C(C)C(=O)O1)c1ccc(O)cc1 (centres unmarked) [MP15]
stability in comparison with GR24 [1]: slightly less stable than GR24 | inhibition of hypocotyl growth (Arabidopsis seedlings [5]): Apart from MP12 and MP15, all MPs showed significant inhibition

COC(=O)/C(=C/O[C@H]1C=C(C)C(=O)O1)N1C(=O)c2ccccc2C1=O [Nijmegen-1]
EC50 for S. hermonthica germination relative to GR24 (S. hermonthica seeds [6]; ref Wigchert et al., 1999): three orders of magnitude higher than GR24 | seed germination in P. ramosa (P. ramosa seeds [7]): potent inducer

CC1=CC(O/C=C(/C)c2ccc([N+](=O)[O-])cc2)OC1=O (centres unmarked) [nitro-phenlactone]
activity in stimulating S. hermonthica germination (S. hermonthica seeds [6]; ref Jia et al., 2016): very weak activity | effect on lateral root density (Arabidopsis seedlings [8]): did not affect lateral root density
